Reference: ChEMBL document CHEMBL1201862, “PubChem BioAssay data set” (2004)
Where “and” joins values, the source holds several entries; their conditions need not be identical. Identical values can stand only once. Counter-ions that a name gives are not always drawn. Calls of active or inactive are those of the source.

Legend:
Mu-type opioid receptor = Mu-type opioid receptor (Homo sapiens, UniProt P35372); format: functional, cell-based;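 further: U2OS cells with beta-arrestin recruitment to OPRM1 by beta-gal complementation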
Mu-type opioid receptor, sequence (P35372 whole entry): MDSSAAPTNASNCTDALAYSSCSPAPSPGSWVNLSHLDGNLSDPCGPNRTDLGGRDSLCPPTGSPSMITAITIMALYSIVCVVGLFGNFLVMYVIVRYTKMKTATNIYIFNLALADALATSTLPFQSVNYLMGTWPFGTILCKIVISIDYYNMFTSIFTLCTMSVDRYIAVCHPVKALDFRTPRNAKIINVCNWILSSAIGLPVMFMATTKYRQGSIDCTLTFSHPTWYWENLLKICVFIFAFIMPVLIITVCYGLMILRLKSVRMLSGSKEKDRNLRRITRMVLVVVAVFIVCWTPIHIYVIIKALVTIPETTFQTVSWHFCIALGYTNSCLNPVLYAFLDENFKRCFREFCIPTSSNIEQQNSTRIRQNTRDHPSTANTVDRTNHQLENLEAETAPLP

[1] = target: 5-hydroxytryptamine receptor 2A (Mus musculus, UniProt P35363); format: functional, cell-based;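 further: CHO-K1 cells with tagged receptor and beta-arrestin; agonist potency measured as compound-induced activation of the receptor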
5-hydroxytryptamine receptor 2A, sequence (P35363 whole entry): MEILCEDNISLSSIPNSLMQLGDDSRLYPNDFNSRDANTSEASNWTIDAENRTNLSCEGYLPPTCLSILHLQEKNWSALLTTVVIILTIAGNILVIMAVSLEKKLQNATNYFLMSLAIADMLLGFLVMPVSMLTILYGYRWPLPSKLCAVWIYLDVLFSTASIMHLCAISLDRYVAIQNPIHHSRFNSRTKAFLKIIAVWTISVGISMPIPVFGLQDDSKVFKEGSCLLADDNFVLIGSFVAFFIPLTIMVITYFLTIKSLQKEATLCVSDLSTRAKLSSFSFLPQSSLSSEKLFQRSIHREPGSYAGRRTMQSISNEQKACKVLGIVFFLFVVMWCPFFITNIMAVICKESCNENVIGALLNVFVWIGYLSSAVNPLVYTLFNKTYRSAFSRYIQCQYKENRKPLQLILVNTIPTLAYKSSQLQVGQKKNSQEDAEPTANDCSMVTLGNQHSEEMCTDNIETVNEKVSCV

[2] = target: T1, Corticotropin-releasing factor receptor 2/Corticotropin-releasing factor-binding protein (Homo sapiens, UniProt P24387+Q13324); experiment: activators of CRF receptor 2 with binding protein – uHTS hits, confirmation (AID 602473); format: functional; details: read-out: EC50_Mean
T1 sequence (Q13324 whole entry): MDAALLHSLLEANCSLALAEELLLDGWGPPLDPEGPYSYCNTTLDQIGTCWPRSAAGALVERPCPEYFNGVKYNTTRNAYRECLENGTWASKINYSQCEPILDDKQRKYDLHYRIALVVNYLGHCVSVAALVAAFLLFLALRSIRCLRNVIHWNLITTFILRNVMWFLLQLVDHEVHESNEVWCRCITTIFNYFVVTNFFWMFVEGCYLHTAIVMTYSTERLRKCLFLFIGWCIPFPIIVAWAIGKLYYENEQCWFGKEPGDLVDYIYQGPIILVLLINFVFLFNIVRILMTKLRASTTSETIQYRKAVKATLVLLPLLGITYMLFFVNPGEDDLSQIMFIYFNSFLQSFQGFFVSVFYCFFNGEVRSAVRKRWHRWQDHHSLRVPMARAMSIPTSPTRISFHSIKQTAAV
T1 sequence (P24387 whole entry): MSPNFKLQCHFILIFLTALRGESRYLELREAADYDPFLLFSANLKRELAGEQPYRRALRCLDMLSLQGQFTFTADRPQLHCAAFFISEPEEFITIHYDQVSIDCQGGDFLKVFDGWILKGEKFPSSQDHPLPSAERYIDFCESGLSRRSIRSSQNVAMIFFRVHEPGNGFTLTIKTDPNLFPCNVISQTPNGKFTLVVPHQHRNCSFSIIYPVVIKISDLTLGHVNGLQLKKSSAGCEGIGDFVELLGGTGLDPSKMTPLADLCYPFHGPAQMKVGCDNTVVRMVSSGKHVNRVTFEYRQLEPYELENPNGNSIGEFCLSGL

[3] = target: T1, Corticotropin-releasing factor receptor 2/Corticotropin-releasing factor-binding protein; experiment: Dose Response confirmation of uHTS hits for small molecule antagonists of the CRF-binding protein and CRF-R2 receptor complex.; format: functional; details: read-out: IC50_Mean
[4] = blockers of CRF-binding protein–CRF-R2 complex – cell-based, uHTS hits, 384-well, dose response (AID 651639); format: functional, Homo sapiens; details: read-out: IC50_Mean
cells [5] = format: functional, cell-based
cells [6] = format: functional, cell-based; remark: listed apart in the source
[7] = target: T2, Trace amine-associated receptor 1 (Homo sapiens, UniProt Q96RJ0); experiment: Fluorescence-based cell-based high throughput dose response assay to identify agonists of the human trace amine associated receptor 1 (TAAR1).; format: functional
T2 sequence (Q96RJ0 whole entry): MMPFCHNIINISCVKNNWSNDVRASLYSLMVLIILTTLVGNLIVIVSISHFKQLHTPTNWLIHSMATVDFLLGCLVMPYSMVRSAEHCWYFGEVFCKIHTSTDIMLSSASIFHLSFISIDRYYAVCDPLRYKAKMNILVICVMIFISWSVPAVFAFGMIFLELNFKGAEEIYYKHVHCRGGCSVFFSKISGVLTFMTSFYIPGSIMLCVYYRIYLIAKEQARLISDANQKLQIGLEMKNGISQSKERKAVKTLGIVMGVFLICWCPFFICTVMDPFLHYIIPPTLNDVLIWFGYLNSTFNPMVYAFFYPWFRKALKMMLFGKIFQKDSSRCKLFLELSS

[8] = target: T2, Trace amine-associated receptor 1; experiment: Counterscreen for agonists of the human trace amine associated receptor 1 (hTAAR1): Fluorescence-based cell-based high throughput dose response assay to identify hTAAR1 agonist that also desensitize TAAR1 receptor response.; format: functional
Albumin = Albumin (Bos taurus, UniProt P02769); experiment: Counterscreen for inhibitors of T-cell receptor (TCR)-CD3 interaction: Fluorescence-based biochemical high throughput dose response assay to identify inhibitors of T-cell receptor (TCR)-CD3 interaction using a TAMRA-labeled BSA probe.; format: functional
Albumin, sequence (P02769 whole entry): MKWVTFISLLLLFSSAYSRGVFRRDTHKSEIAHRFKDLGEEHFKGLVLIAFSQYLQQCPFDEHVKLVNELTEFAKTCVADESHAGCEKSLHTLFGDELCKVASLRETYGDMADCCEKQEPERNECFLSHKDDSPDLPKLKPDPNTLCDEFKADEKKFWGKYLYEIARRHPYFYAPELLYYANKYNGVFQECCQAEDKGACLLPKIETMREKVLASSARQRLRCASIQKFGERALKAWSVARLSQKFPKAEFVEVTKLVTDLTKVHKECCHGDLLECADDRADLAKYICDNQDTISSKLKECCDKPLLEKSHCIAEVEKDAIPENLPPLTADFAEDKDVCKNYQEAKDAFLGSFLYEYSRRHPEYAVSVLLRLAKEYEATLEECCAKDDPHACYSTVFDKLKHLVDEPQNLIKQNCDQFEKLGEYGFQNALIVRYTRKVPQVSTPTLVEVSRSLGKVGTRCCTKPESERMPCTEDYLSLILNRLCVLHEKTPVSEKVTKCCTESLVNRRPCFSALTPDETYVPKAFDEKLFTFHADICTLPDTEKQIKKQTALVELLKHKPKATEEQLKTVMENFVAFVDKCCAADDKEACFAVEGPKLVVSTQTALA

[9] = target: T3, Rac GTPase-activating protein 1 (Homo sapiens, UniProt Q9H0H5); experiment: blockers of MgcRacGAP-driven Rac1 GTP hydrolysis – biochemical, ADP Hunter fluorescence, primary and confirmatory, confirmation (AID 624330); format: functional
T3 sequence (Q9H0H5 whole entry): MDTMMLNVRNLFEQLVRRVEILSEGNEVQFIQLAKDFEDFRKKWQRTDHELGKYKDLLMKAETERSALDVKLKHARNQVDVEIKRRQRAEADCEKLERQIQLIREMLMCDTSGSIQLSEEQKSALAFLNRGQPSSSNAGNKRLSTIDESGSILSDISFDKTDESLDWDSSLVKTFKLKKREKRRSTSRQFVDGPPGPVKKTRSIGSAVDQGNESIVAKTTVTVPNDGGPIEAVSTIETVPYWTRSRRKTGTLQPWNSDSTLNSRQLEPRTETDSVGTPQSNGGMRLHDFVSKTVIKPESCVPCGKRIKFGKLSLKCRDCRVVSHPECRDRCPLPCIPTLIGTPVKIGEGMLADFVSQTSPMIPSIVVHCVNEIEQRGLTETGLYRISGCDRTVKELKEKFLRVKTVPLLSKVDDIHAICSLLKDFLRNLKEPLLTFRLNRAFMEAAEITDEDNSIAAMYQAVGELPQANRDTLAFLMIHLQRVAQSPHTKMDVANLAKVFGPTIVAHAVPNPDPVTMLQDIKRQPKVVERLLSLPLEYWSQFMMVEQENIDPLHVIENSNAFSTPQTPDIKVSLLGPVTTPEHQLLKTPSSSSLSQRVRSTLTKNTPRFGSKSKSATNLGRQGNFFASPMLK

[10] = viability loss in HeLa cells – cytotoxicity control for MgcRacGAP inhibitor project, dose response (AID 624300); format: functional
[11] = target: Disintegrin and metalloproteinase domain-containing protein 17 (Homo sapiens, UniProt P78536); experiment: exosite inhibitors of ADAM17, dose response, biochemical (AID 743260)
Disintegrin and metalloproteinase domain-containing protein 17, sequence (P78536 whole entry, the tested form may be a part): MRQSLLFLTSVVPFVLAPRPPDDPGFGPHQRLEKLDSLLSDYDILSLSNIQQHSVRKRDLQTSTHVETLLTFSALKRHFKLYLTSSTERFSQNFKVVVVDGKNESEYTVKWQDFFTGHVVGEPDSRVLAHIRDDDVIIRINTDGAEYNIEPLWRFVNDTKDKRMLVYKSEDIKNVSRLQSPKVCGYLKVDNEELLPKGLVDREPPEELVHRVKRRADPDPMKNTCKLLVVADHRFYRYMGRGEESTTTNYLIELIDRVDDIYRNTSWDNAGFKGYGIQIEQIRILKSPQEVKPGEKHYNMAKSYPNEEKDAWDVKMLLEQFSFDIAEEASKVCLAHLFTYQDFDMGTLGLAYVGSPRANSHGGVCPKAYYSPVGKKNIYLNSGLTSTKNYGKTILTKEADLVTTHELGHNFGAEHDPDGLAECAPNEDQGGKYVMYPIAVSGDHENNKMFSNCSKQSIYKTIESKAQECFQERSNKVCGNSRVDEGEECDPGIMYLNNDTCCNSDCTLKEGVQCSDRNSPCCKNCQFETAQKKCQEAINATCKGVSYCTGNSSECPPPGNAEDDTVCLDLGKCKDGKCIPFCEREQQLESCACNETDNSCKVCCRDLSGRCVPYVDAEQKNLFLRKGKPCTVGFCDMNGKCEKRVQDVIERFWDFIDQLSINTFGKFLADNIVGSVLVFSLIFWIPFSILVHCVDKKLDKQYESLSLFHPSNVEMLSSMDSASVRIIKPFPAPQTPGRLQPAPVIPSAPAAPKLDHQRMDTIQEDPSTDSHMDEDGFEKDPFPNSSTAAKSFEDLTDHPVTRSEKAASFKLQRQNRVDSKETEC

[12] = inhibition of ADAM10 peptide cleavage – biochemical, FRET peptide substrate, recombinant human ADAM10, selectivity assay for ADAM17 exosite inhibitor project, dose response (AID 743259);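 further: ADAM10 enzyme cleaving a FRET peptide substrate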
Large T antigen = Large T antigen (Simian virus 40, UniProt P03070); format: functional, Betapolyomavirus macacae;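 further: Confirmatory-stage PubChem screen for compounds that inhibit SV40 T antigen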
Large T antigen, sequence (P03070 whole entry, the tested form may be a part): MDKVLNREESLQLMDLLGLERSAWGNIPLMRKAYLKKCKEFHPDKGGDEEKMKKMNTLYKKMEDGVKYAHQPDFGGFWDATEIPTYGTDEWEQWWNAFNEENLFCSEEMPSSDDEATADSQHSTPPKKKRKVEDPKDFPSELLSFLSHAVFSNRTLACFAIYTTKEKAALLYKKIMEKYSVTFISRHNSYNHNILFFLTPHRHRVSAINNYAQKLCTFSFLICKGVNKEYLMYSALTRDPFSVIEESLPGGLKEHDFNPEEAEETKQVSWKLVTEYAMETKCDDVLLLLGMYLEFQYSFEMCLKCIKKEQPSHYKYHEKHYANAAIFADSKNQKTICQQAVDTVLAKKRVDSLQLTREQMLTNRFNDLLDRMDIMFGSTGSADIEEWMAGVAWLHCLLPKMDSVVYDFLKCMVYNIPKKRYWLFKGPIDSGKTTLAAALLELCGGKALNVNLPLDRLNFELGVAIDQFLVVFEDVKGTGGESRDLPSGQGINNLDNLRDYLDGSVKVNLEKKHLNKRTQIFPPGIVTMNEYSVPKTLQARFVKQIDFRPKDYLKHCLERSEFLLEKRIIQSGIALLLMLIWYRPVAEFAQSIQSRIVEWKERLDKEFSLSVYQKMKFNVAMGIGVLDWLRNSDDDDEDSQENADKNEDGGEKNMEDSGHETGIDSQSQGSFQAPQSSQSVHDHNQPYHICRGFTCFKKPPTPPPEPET

[13] = target: T4, Oxysterols receptor LXR-beta (Homo sapiens, UniProt P55055); experiment: LXR agonists, Gal4 luciferase reporter, dose response, counter-screen for ssDAF-12 agonist project, cell-based, luminescence, HEK293, S. stercoralis campaign (AID 720737); format: functional; details: read-out: IC50 (the source's name)
T4 sequence (P55055 whole entry): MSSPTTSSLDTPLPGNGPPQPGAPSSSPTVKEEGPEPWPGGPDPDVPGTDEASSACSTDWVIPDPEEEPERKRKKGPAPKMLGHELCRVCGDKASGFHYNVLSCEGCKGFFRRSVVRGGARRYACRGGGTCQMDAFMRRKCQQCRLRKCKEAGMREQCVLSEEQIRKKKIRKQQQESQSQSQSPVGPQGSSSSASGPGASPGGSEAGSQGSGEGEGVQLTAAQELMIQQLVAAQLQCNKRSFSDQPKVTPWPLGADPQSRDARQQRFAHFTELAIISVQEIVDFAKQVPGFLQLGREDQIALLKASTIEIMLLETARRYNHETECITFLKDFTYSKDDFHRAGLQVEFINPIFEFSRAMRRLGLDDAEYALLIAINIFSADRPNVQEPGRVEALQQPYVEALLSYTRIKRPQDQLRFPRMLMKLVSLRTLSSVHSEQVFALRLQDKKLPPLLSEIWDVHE

H4 = experiment: Luminescence Cell-Based Dose Response HTS to Identify Activators of 5'UTR Stem-Loop Driven Prion Protein mRNA Translation in H4 Neuroglioblastoma Cells. [Related pubchem assays: 1829 (Project Summary), 1814 (Primary HTS)]; format: functional; details: Homo sapiens
[14] = Luminescence Cell-Based Dose Response HTS to Identify Activators of Luciferase Translation or Activity in H4 […] Cells. [Related pubchem assays: 1829 (Project Summary), 1814 (Primary HTS)]; format: functional
[15] = Luminescence-based cell-based high throughput dose response assay to identify activators of the DAF-12 from the parasite S. stercoralis (ssDAF-12).; format: functional
cells [16] = format: functional, cell-based; remark: listed apart in the source
[17] = fluconazole-exposed Candida albicans growth modulators – fluorescence, retest, confirmation (AID 2467); format: functional, cell-based
cells [18] = format: functional, cell-based; remark: listed apart in the source
[19] = NIH-3T3 fibroblast cytotoxicity, dose response, cytotoxicity control, cell-based, fluorescence, Alamar Blue, secondary assay (AID 2327); format: functional;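 further: NIH-3T3 mouse fibroblasts cultured with fluconazole at 8 µg/mL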
Aminopeptidase N = target: T5, Aminopeptidase N (Plasmodium falciparum FcB1/Columbia, UniProt O96935); experiment: malaria alanyl aminopeptidase activity blockers – biochemical, fluorogenic H-Leu-NHMec substrate, 1536-well (AID 1445); design: species or system Plasmodium falciparum 3D7, 3D7
T5 sequence (O96935 whole entry): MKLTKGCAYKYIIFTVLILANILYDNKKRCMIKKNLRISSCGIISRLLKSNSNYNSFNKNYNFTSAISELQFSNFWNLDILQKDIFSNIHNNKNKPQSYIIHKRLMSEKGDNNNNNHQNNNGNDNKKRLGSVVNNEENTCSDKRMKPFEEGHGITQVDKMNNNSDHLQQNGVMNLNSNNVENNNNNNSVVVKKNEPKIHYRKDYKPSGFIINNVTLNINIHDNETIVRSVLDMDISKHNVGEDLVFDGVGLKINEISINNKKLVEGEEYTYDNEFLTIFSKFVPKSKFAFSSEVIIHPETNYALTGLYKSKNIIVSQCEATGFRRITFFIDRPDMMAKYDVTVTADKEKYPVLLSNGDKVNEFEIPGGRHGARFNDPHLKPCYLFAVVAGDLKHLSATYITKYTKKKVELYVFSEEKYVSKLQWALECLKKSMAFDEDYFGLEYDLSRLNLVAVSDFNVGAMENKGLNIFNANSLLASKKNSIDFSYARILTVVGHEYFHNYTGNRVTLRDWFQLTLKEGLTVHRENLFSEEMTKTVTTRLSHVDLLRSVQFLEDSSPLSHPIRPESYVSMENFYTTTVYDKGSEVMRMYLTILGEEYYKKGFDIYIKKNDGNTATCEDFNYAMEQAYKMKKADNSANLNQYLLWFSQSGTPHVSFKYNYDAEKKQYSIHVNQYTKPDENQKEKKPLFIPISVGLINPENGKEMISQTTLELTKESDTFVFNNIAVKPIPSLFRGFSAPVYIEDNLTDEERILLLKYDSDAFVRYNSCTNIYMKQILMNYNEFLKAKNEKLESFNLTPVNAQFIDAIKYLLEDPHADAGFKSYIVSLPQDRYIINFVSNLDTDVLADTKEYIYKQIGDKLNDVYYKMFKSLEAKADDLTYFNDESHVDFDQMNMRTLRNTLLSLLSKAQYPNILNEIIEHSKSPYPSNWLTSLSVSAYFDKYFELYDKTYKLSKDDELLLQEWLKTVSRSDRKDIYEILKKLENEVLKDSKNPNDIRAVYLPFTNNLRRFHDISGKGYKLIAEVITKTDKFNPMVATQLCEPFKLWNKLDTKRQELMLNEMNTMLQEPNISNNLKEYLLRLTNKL

## O=C(c1ccco1)N1CCN(CCCCN2C(=O)c3ccccc3C2=O)CC1
Mu-type opioid receptor
  EC50: 92.5 µM (inactive)
[1]
  EC50: 76.1 µM (inactive)

## COc1ccccc1-c1ccc(SCc2cccc(F)c2)nn1
[2]
  EC50: > 53 µM (inactive)
[3]
  IC50: < 0.368 µM (active)
[4]
  IC50: > 20 µM (inactive)

## O=C(NCCc1ccccc1)c1nc2nc(-c3cccs3)cc(C(F)(F)F)n2n1
Cells [5]
  EC50: > 29.9 µM (inactive)
Cells [6]
  IC50: 24.1 µM (inactive)
[7]
  EC50: 346 nM (active)
[8]
  IC50: 1.91 µM (active)

## CN=C(S)NNC(=O)c1oc2nc(-c3ccccc3)cc(-c3ccco3)c2c1N
Albumin
  IC50: > 94.1 µM (inactive)

## CCN1C(=O)/C(=C2/C=Cc3cc(C)ccc3N2CC)N(C)C1=S
[9]
  IC50: 60.4 µM (active)
[10]
  CC50: 100 µM (active)

## CC(=O)NC(Cc1cccc(C)c1)C(=O)NC1CCN(c2ncccc2[N+](=O)[O-])CC1 (stereo not given)
[2]
  EC50: > 53 µM (inactive)
[3]
  IC50: 5.13 µM (active)
[4]
  IC50: 18.8 µM (active)

## Clc1ccc(CN2CCN(c3ncccn3)CC2)c(Cl)c1
Mu-type opioid receptor
  EC50: 92.5 µM (inactive)
[1]
  EC50: 1.29 µM (active)

## COC(=O)c1ccc(CN2C(=O)C(C)N(C(=O)c3c(F)cccc3F)c3ccccc32)cc1 (stereo not given)
[2]
  EC50: > 53 µM (inactive)
[3]
  IC50: < 0.368 µM (active)
[4]
  IC50: 17 µM (active)
[11]
  IC50: > 69.5 µM (inactive)
[12]
  IC50: > 69.5 µM (inactive)

## COc1cc(C2c3cc4c(cc3OC(NCCc3ccccc3)C2C)OCO4)cc(OC)c1OC (stereo not given)
Cells [5]
  EC50: > 29.9 µM (inactive)
Cells [6]
  IC50: > 29.9 µM (inactive)
[7]
  EC50: 23.9 nM (active)
[8]
  IC50: 0.261 µM (active)

## COc1cc(C(C)=O)ccc1OCC(O)CN1CCN(c2ccccn2)CC1 (stereo not given)
Mu-type opioid receptor
  EC50: 92.5 µM (inactive)
[1]
  EC50: 0.321 µM (active)

## CCOc1cc(/C=N/NC(=O)Nc2ccccc2)ccc1O
Large T antigen
  IC50: > 100 µM (active)
[13]
  EC50: > 67.6 µM (inactive)
[9]
  IC50: 32.5 µM (active)
H4
  EC50: 1.94 µM (active)
[14]
  EC50: 16.6 µM (active)
[15]
  IC50: > 67.6 µM (inactive)
[10]
  CC50: 100 µM (active)

## O=C(N/N=C/c1cc(Br)ccc1O)c1cccc(N2CCCC2=O)c1
Cells [16]
  EC50: > 350 µM (not active)
[17]
  EC50: 2.33 µM (active)
Cells [18]
  EC50: 7.74 µM (active)
[19]
  EC50: 15.4 µM (inconclusive)
Albumin
  IC50: > 94.1 µM (inactive)
Aminopeptidase N
  IC50: 38.3 µM (active)

## CC(N)Cc1ccc(O)cc1 (stereo not given) [HYDROXYAMPHETAMINE HYDROBROMIDE]
Cells [5]
  EC50: > 29.9 µM (inactive)
Cells [6]
  IC50: > 29.9 µM (inactive)
[7]
  EC50: 1.71 µM (active) and 1.18 µM (active)
[8]
  IC50: 11.8 µM (inactive) and 5.84 µM (active)
